Results: ChEMBL document CHEMBL1955740, “Structure-based virtual screening approach to the discovery of p38 MAP kinase inhibitors” (Bioorg Med Chem Lett, 2012)

Experiments:
[1] = molecular target: T1, Mitogen-activated protein kinase 14 (Homo sapiens, UniProt Q16539); experiment: Inhibition of MAPK p38alpha assessed as activity remaining at 50 uM relative to control
[2] = molecular target: T1, Mitogen-activated protein kinase 14; experiment: Inhibition of MAPK p38alpha

T1 sequence (Q16539 whole entry): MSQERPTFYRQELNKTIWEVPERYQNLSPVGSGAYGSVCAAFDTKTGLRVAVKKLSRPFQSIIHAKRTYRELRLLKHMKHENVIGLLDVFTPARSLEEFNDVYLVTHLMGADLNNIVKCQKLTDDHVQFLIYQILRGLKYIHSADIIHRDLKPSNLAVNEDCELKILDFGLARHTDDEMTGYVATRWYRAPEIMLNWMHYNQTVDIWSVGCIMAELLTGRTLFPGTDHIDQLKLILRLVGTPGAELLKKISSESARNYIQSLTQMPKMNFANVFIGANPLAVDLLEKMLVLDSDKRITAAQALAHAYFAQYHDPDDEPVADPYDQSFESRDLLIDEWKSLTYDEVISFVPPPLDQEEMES

`CCn1cc(/C=C2/Oc3c(ccc(O)c3CN3CCOCC3)C2=O)c2ccccc21` showed an Activity [1] of 37% and an IC50 [2] of over 30 µM.
Work on `Cc1cccc(-c2nc(Nc3ccc(C(=O)O)cc3)c3ccccc3n2)c1` yielded an Activity [1] of 34% and an IC50 [2] of 20.4 µM.
With `O=C1c2ccccc2C(=O)N1CCc1nc2c3c(-c4ccco4)c(-c4ccco4)oc3ncn2n1` the Activity [1] was 39% and the IC50 [2] was over 30 µM.
In the case of `NC(=O)c1ccc(Nc2nnc(-c3ccc(O)cc3)c3ccccc23)cc1`, the Activity [1] is reported as 41% and the IC50 [2] is reported as over 30 µM.
For `Nc1nc(Nc2ccccc2)sc1C(=O)c1ccccc1`, the Activity [1] was 8.1% and the IC50 [2] was 0.72 µM.
`Cn1cc(/C=C2/C(=O)NC(=O)N(CCc3ccccc3)C2=O)c2ccccc21` showed an Activity [1] of 32% and an IC50 [2] of 17.1 µM.
